Assay results reported in ChEMBL document CHEMBL3885881, “DrugMatrix”.

Species on record: Rattus norvegicus
Assay: DrugMatrix - Regimen: Daily Repeat
Format: toxicity, organism-based, Sprague-Dawley
Parameters: regimen Daily Repeat, gender Male, age 6-8 weeks
Conditions: in vivo, po, route oral GAVAGE, vehicle 100 % WATER; for ABSOLUTE BASOPHIL / ABSOLUTE EOSINOPHIL / ABSOLUTE LYMPHOCYTE / ABSOLUTE MONOCYTE / ABSOLUTE SEGMENTED NEUTROPHIL / BASOPHIL / EOSINOPHIL / ERYTHROCYTE COUNT / HEMATOCRIT / HEMOGLOBIN / LEUKOCYTE COUNT / LYMPHOCYTE / MEAN CORPUSCULAR HEMOGLOBIN / MEAN CORPUSCULAR HEMOGLOBIN CONCENTRATION / MEAN CORPUSCULAR VOLUME / MONOCYTE / NEUTROPHIL / NUCLEATED RED BLOOD CELLS / PLATELET COUNT: tissue Blood; for ALANINE AMINOTRANSFERASE / ALBUMIN / ALKALINE PHOSPHATASE / ASPARTATE AMINOTRANSFERASE / BLOOD UREA NITROGEN / CARBON DIOXIDE / CHLORIDE / CHOLESTEROL / CREATINE PHOSPHOKINASE / CREATININE / GLUCOSE / LACTATE DEHYDROGENASE / LIPASE / PHOSPHORUS / POTASSIUM / SODIUM / TOTAL BILIRUBIN / TOTAL PROTEIN / URIC ACID: tissue Plasma
[1] = 1 mg/kg, 120 h, dose level Low, time 5 day
[2] = 10 mg/kg, 72 h, dose level High, time 3 day
[3] = 10 mg/kg, 120 h, dose level High, time 5 day

CC[C@H](C)[C@H]1O[C@]2(C=C[C@@H]1C)C[C@@H]1C[C@@H](C/C=C(\C)[C@@H](O[C@H]3C[C@H](OC)[C@@H](O[C@H]4C[C@H](OC)[C@@H](O)[C@H](C)O4)[C@H](C)O3)[C@@H](C)/C=C/C=C3\CO[C@@H]4[C@H](O)C(C)=C[C@@H](C(=O)O1)[C@]34O)O2.CO[C@H]1C[C@H](O[C@H]2[C@H](C)O[C@@H](O[C@@H]3/C(C)=C/C[C@@H]4C[C@@H](C[C@]5(C=C[C@H](C)[C@@H](C(C)C)O5)O4)OC(=O)[C@@H]4C=C(C)[C@@H](O)[C@H]5OC/C(=C\C=C\[C@@H]3C)[C@]54O)C[C@@H]2OC)O[C@@H](C)[C@@H]1O [ABAMECTIN]
ABSOLUTE BASOPHIL [1]: 0 CELLS/uL
ABSOLUTE EOSINOPHIL [1]: 144.67 CELLS/uL
ABSOLUTE LYMPHOCYTE [1]: 15431.33 CELLS/uL
ABSOLUTE MONOCYTE [1]: 370 CELLS/uL
ABSOLUTE SEGMENTED NEUTROPHIL [1]: 1387.33 CELLS/uL
BASOPHIL [1]: 0%
EOSINOPHIL [1]: 0.67%
ERYTHROCYTE COUNT [1]: 5.65 x10E6/uL
HEMATOCRIT [1]: 33.97%
HEMOGLOBIN [1]: 13.77 G/DL
LEUKOCYTE COUNT [1]: 17.33 x10E3/uL
LYMPHOCYTE [1]: 89.67%
MEAN CORPUSCULAR HEMOGLOBIN [1]: 24.4 pg
MEAN CORPUSCULAR HEMOGLOBIN CONCENTRATION [1]: 40.53 G/DL
MEAN CORPUSCULAR VOLUME [1]: 60.13 fL
MONOCYTE [1]: 2%
NEUTROPHIL [1]: 7.67%
NUCLEATED RED BLOOD CELLS [1]: 0 /100WBC
PLATELET COUNT [1]: 1317.33 x10E3/uL
ALANINE AMINOTRANSFERASE [1]: 48.67 u/L
ALBUMIN [1]: 4.2 G/DL
ALKALINE PHOSPHATASE [1]: 323.67 u/L
ASPARTATE AMINOTRANSFERASE [1]: 72 u/L
BLOOD UREA NITROGEN [1]: 14.67 mg/dL
CARBON DIOXIDE [1]: 25 mmol/L
CHLORIDE [1]: 102 MEQ/L
CHOLESTEROL [1]: 70.33 mg/dL
CREATINE PHOSPHOKINASE [1]: 216.33 u/L
CREATININE [1]: 0.13 mg/dL
GLUCOSE [1]: 162.33 mg/dL
LACTATE DEHYDROGENASE [1]: 87.67 u/L
LIPASE [1]: 9 u/L
PHOSPHORUS [1]: 11.33 mg/dL
POTASSIUM [1]: 6.2 MEQ/L
SODIUM [1]: 144.03 MEQ/L
TOTAL BILIRUBIN [1]: 0.17 mg/dL
TOTAL PROTEIN [1]: 5.87 G/DL
URIC ACID [1]: 1.5 mg/dL
ABSOLUTE BASOPHIL [2]: 0 CELLS/uL
ABSOLUTE EOSINOPHIL [2]: 36.33 CELLS/uL
ABSOLUTE LYMPHOCYTE [2]: 12016 CELLS/uL
ABSOLUTE MONOCYTE [2]: 120 CELLS/uL
ABSOLUTE SEGMENTED NEUTROPHIL [2]: 861 CELLS/uL
BASOPHIL [2]: 0%
EOSINOPHIL [2]: 0.33%
ERYTHROCYTE COUNT [2]: 5.75 x10E6/uL
HEMATOCRIT [2]: 35.6%
HEMOGLOBIN [2]: 13.9 G/DL
LEUKOCYTE COUNT [2]: 13.03 x10E3/uL
LYMPHOCYTE [2]: 92.33%
MEAN CORPUSCULAR HEMOGLOBIN [2]: 24.2 pg
MEAN CORPUSCULAR HEMOGLOBIN CONCENTRATION [2]: 39.07 G/DL
MEAN CORPUSCULAR VOLUME [2]: 61.93 fL
MONOCYTE [2]: 1%
NEUTROPHIL [2]: 6.33%
NUCLEATED RED BLOOD CELLS [2]: 0 /100WBC
PLATELET COUNT [2]: 1234 x10E3/uL
ALANINE AMINOTRANSFERASE [2]: 46.33 u/L
ALBUMIN [2]: 4.23 G/DL
ALKALINE PHOSPHATASE [2]: 426 u/L
ASPARTATE AMINOTRANSFERASE [2]: 78.33 u/L
BLOOD UREA NITROGEN [2]: 14.67 mg/dL
CARBON DIOXIDE [2]: 25 mmol/L
CHLORIDE [2]: 99.67 MEQ/L
CHOLESTEROL [2]: 64 mg/dL
CREATINE PHOSPHOKINASE [2]: 208.33 u/L
CREATININE [2]: 0.18 mg/dL
GLUCOSE [2]: 136.33 mg/dL
LACTATE DEHYDROGENASE [2]: 150.33 u/L
LIPASE [2]: 11 u/L
PHOSPHORUS [2]: 11.37 mg/dL
POTASSIUM [2]: 6.65 MEQ/L
SODIUM [2]: 143.17 MEQ/L
TOTAL BILIRUBIN [2]: 0.17 mg/dL
TOTAL PROTEIN [2]: 5.87 G/DL
URIC ACID [2]: 1.33 mg/dL
ABSOLUTE BASOPHIL [3]: 0 CELLS/uL
ABSOLUTE EOSINOPHIL [3]: 0 CELLS/uL
ABSOLUTE LYMPHOCYTE [3]: 9787 CELLS/uL
ABSOLUTE MONOCYTE [3]: 273.67 CELLS/uL
ABSOLUTE SEGMENTED NEUTROPHIL [3]: 1239.33 CELLS/uL
BASOPHIL [3]: 0%
EOSINOPHIL [3]: 0%
ERYTHROCYTE COUNT [3]: 6.35 x10E6/uL
HEMATOCRIT [3]: 39.13%
HEMOGLOBIN [3]: 15.47 G/DL
LEUKOCYTE COUNT [3]: 11.3 x10E3/uL
LYMPHOCYTE [3]: 85.33%
MEAN CORPUSCULAR HEMOGLOBIN [3]: 24.43 pg
MEAN CORPUSCULAR HEMOGLOBIN CONCENTRATION [3]: 39.53 G/DL
MEAN CORPUSCULAR VOLUME [3]: 61.9 fL
MONOCYTE [3]: 2.67%
NEUTROPHIL [3]: 12%
NUCLEATED RED BLOOD CELLS [3]: 0.33 /100WBC
PLATELET COUNT [3]: 1492.67 x10E3/uL
ALANINE AMINOTRANSFERASE [3]: 38 u/L
ALBUMIN [3]: 4.63 G/DL
ALKALINE PHOSPHATASE [3]: 309 u/L
ASPARTATE AMINOTRANSFERASE [3]: 72.33 u/L
BLOOD UREA NITROGEN [3]: 17 mg/dL
CARBON DIOXIDE [3]: 27.33 mmol/L
CHLORIDE [3]: 98.67 MEQ/L
CHOLESTEROL [3]: 79.33 mg/dL
CREATINE PHOSPHOKINASE [3]: 356.67 u/L
CREATININE [3]: 0.14 mg/dL
GLUCOSE [3]: 153.33 mg/dL
LACTATE DEHYDROGENASE [3]: 446.33 u/L
LIPASE [3]: 8.67 u/L
PHOSPHORUS [3]: 10.47 mg/dL
POTASSIUM [3]: 6.1 MEQ/L
SODIUM [3]: 143.9 MEQ/L
TOTAL BILIRUBIN [3]: 0.13 mg/dL
TOTAL PROTEIN [3]: 6.7 G/DL
URIC ACID [3]: 1.5 mg/dL
